Reference: the NIST ThermoML archive (doi:10.1016/j.jct.2005.03.016)

Test: xn = mol fraction of the nth substance listed
Conditions: Liquid, Vibrating tube method

CC1CCCCC1 [methylcyclohexane] + CCO
mass density [kg/m3]
Conditions | 100 kPa | 5000 kPa | 10000 kPa | 15000 kPa | 20000 kPa | 25000 kPa | 30000 kPa | 35000 kPa | 40000 kPa | 45000 kPa
283.15 K, x2 = 0 | 777.6 | 781.4 | 785.2 | 788.7 | 792.1 | 795.3 | 798.5 | 801.5 | 804.4 | 807.3
283.15 K, x2 = 0.052 | 777.6 | 781.4 | 785.1 | 788.7 | 792.1 | 795.4 | 798.5 | 801.6 | 804.5 | 807.4
283.15 K, x2 = 0.125 | 777.7 | 781.6 | 785.3 | 788.9 | 792.4 | 795.6 | 798.8 | 801.9 | 804.8 | 807.7
283.15 K, x2 = 0.25 | 778.5 | 782.4 | 786.2 | 789.8 | 793.2 | 796.6 | 799.7 | 802.8 | 805.8 | 808.7
283.15 K, x2 = 0.375 | 779.8 | 783.6 | 787.4 | 791.1 | 794.6 | 797.9 | 801.1 | 804.2 | 807.2 | 810.1
283.15 K, x2 = 0.5 | 781.4 | 785.3 | 789.1 | 792.8 | 796.3 | 799.6 | 802.8 | 806 | 809 | 811.9
283.15 K, x2 = 0.625 | 783.5 | 787.4 | 791.3 | 794.9 | 798.5 | 801.8 | 805.1 | 808.2 | 811.3 | 814.2
283.15 K, x2 = 0.75 | 786.4 | 790.4 | 794.3 | 797.9 | 801.5 | 804.9 | 808.1 | 811.3 | 814.3 | 817.2
283.15 K, x2 = 0.875 | 790.9 | 794.8 | 798.7 | 802.4 | 805.9 | 809.3 | 812.6 | 815.8 | 818.8 | 821.8
293.15 K, x2 = 0 | 769 | 773 | 777 | 780.7 | 784.3 | 787.8 | 791.1 | 794.2 | 797.3 | 800.2
293.15 K, x2 = 0.052 | 768.8 | 772.8 | 776.8 | 780.6 | 784.2 | 787.6 | 790.9 | 794.1 | 797.2 | 800.2
293.15 K, x2 = 0.125 | 768.9 | 772.9 | 776.9 | 780.7 | 784.4 | 787.8 | 791.2 | 794.4 | 797.5 | 800.5
293.15 K, x2 = 0.25 | 769.6 | 773.7 | 777.8 | 781.6 | 785.2 | 788.7 | 792.1 | 795.3 | 798.4 | 801.5
293.15 K, x2 = 0.375 | 770.8 | 774.9 | 779 | 782.8 | 786.5 | 790 | 793.4 | 796.7 | 799.8 | 802.8
293.15 K, x2 = 0.5 | 772.5 | 776.6 | 780.7 | 784.5 | 788.2 | 791.8 | 795.2 | 798.4 | 801.6 | 804.6
293.15 K, x2 = 0.625 | 774.6 | 778.8 | 782.9 | 786.8 | 790.5 | 794 | 797.4 | 800.7 | 803.9 | 806.9
293.15 K, x2 = 0.75 | 777.7 | 781.8 | 785.9 | 789.9 | 793.6 | 797.1 | 800.5 | 803.8 | 807 | –
293.15 K, x2 = 0.875 | 782.2 | 786.4 | 790.5 | 794.4 | 798.1 | 801.7 | 805.1 | 808.4 | 811.6 | –
